In US20220193447A1, “METHODS FOR MODULATION OF AND SENSITIZATION TO SERINE AND GLYCINE LIMITATION” (Faeth Therapeutics, Inc., priority 2020, published 2022):
Where a SMILES comes first, the peptide text is derived from it. The star is where a group is joined. Cbz = O=C(OCc1ccccc1)*

How the values were obtained:
IDO1 expression [1] = assay: Immunoblotting of IDO1 in human pancreatic cancer cells; format: cell-based; settings: for IDO1 protein levels: 2D or 3D culture, MG132 20 μM 16 h, bafilomycin A1 100 nM
IDO1 expression [2] = assay: Immunoblotting of IDO1 in KPC cells; format: cell-based, mouse
KPC cells = assay: KPC cell proliferation with or without serine; format: cell-based, mouse; settings: epacadostat 1 μM, −Serine medium, 5 days
Protocol: KPC cells (tumor cells derived from a pancreatic tumor of a Kras' p53″^t genetically engineered mouse) were seeded into 24-well plates and allowed to adhere overnight. […] Cell number was recorded every 24 h for 5 days. A time zero plate was used to calculate the starting cell number.

HT-29 and HCT116 cells = settings: supplement alone (1 mM sodium formate or 0.4 mM glycine)
Protocol: Cells (2×10^4 to 3×10^4 cells/well depending on the cell lines) were plated in 24-well plates in their regular medium. […] For the counting step, cells were trypsinized, suspended in PBS-EDTA, and counted with a CASY Model TT Cell Counter. Relative cell number at each time point was calculated based on the number of cells measured before the medium change.

ATF-4 response = assay: Western blots of SSP enzymes and ATF-4 response; format: cell-based, human; settings: MG-132 10 μM
Protocol: Protein lysates were processed in RIPA-buffer supplemented with phosphatase inhibitor cocktail and complete protease inhibitors. Lysates were separated using precast NuPAGE 4-12% Bis-Tris Protein gels and transferred to nitrocellulose membranes. Following incubation with primary antibodies, appropriate secondary antibodies were used to detect the proteins. Westerns scanned using the Odyssey CLx or visualized using ECL chemiluminescence detection kits.
Cells were grown for 24 hours in −SG medium or CM and treated with 10 μM PH755 diluted in DMSO or DMSO alone. To evaluate protein synthesis, puromycin (final concentration: 90 μM) was added to each well 10 minutes prior harvesting the cells for western blot analysis, except in the negative control well. Where indicated, cells grown in CM medium were treated with cycloheximide (10 μg/mL) for the last 5 hours providing a control for translation inhibition. Incorporation of puromycin into newly synthesized proteins was assessed by Western blot using an anti-puromycin antibody. To assess the accumulation of short-lived proteins in response to proteasome inhibition, cells grown in −SG medium or CM plus or minus 10 μM PH755 for 24 hours were treated for the last 6 hours with the proteasome inhibitor MG-132 (10 μM) before harvesting the cells for western blot analysis.

CC(C)(C)c1nc2c3cc[nH]c(=O)c3c3cc(F)ccc3c2[nH]1 [JAKi] was tested, and the “up-regulation of IDO1 protein levels in AI-grown cells” value (IDO1 expression [1]; CFPAC-1 or HPAF-II cells, JAKi 1 μM, 16 h) was “blocked”.

In the case of “human form of IFNγ: human cytokine IFNγ, canonical activator of IDO1”, the IDO1 expression (IDO1 expression [2]; murine cells, human form of IFNγ) is reported as “did not impact IDO1 expression in murine cells” and the IDO1 expression (IDO1 expression [1]; panel of human pancreatic cancer cells, IFNγ 1 ng/ml, 24 h) is reported as “consistently increased IDO1 expression”.

In the case of CO/C1=C\C(C)=C\[C@@H](C)[C@@H](O)[C@@H](C)C/C(C)=C/C=C/[C@H](OC)[C@@H]([C@@H](C)[C@@H](O)[C@H](C)[C@@]2(O)C[C@@H](O)[C@H](C)[C@@H](C(C)C)O2)OC1=O [bafilomycin, bafilomycin A1], the IDO1 protein levels (IDO1 expression [1]) is reported as “no effect on IDO1 protein levels”.

With NS(=O)(=O)NCCNc1nonc1C(=NO)Nc1ccc(F)c(Br)c1 [epacadostat] the “antiproliferative effect of serine starvation” value (KPC cells) was “enhances the antiproliferative effect”.

In the case of NCC(=O)O [glycine], the “growth of −SG plus PH755 treated cells” value (HT-29 and HCT116 cells) is reported as “did not restore growth”.

For O=C[O-].[Na+] [formate, sodium formate], the “growth of −SG plus PH755 treated cells” value (HT-29 and HCT116 cells) was “did not restore growth”.

For CC(C)C[C@@H](C=O)NC(=O)[C@H](CC(C)C)NC(=O)[C@H](CC(C)C)NC(=O)OCc1ccccc1 [MG-132] (Cbz-Leu-Leu-Leu-aldehyde), the ATF-4 protein level (ATF-4 response; cells in complete medium) was “strong accumulation of ATF-4”, the “ATF-4 protein levels and ASNS, PSAT expression” value (ATF-4 response; cells in −SG medium plus PH755) was “no restoration of ATF-4 protein levels” and the IDO1 protein levels (IDO1 expression [1]) was “no effect on IDO1 protein levels”.

B1: murine form of cytokine IFNγ: murine cytokine IFNγ, a canonical activator of IDO1 (protein, UniProt P01580 23-155, looked up)
Interferon gamma: HGTVIESLESLNNYFNSSGIDVEEKSLFLDIWRNWQKDGDMKILQSQIISFYLRLFEVLKDNQAISNNISVIESHLITTFFSNSKAKKDAFMSIAKFEVNNPQVQRQAFNELIRVVHQLLPESSLRKRKRSRC
In the case of B1, the IDO1 expression (IDO1 expression [2]; KPC cells, murine IFNγ 1 ng/ml, 24 h) is reported as “increased IDO1 expression in vitro”.
